Experimental data as given in US5478828A, “Piperazinyl-and piperidinyl-cyclohexanols” (Bristol-Myers Squibb Company, priority 1995, dated 1995).
Like-named read-outs stand apart in the source and are kept apart here.

Legend:
D2 receptor = molecular target: T1, D2 receptor (Bos taurus, UniProt P20288); experiment: In vitro receptor binding, D2
T1 construct: from tissue
Description: In vitro IC50 test values for binding to the D2 receptor were determined for representative compounds of Formula I by the method of Burt, Creese, and Snyder, Molecular Pharmacology 12, 800 (1976); Creese, Burt, and Snyder, Science 196, 326 (1977); and Creese, Burt and Snyder, Science.

5-HT1A receptor = experiment: In vitro receptor binding, 5-HT1A
Description: In vitro IC50 test values for binding to the 5-HT1A receptor were determined for representative compounds of Formula I by the method of S. J. Peroutka, Brain Research 344, 167 (1985); with only minor modifications. Test IC50 values lower than 100 nM are considered to reflect activity at the 5-HT1A receptor.

[1] = test system: rat social interaction task (anxiety); experiment: Rat social interaction task (in vivo model of anxiety); conditions: given subcutaneously
[2] = in vitro, read-out: D2 receptor binding IC50

T1 sequence (P20288 whole entry): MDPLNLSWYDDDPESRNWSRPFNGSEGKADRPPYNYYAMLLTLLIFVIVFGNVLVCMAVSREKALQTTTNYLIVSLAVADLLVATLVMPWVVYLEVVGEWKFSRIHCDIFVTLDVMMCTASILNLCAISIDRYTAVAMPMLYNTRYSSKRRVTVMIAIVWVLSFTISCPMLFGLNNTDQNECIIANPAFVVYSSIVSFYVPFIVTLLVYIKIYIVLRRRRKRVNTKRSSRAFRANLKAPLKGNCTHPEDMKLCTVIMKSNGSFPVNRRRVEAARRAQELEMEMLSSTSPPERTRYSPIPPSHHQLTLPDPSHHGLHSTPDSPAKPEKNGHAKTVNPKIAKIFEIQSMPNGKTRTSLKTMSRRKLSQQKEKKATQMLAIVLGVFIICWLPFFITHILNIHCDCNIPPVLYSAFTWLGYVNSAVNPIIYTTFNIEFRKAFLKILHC

O[C@]1(c2ccc3c(c2)OCCO3)CC[C@H](N2CCN(Cc3ccccc3)CC2)CC1 [Example 20-Z, Z-1-(1,4-Benzodioxan-6-yl)-4-[4-(phenylmethyl)-1-piperazinyl]cyclohexanol]
IC50 (D2 receptor; [2]): 15200 nM
IC50 (5-HT1A receptor): 9.9 nM

COc1cccc(CN2CCN([C@H]3CC[C@](O)(c4ccc5c(c4)OCO5)CC3)CC2)c1 [Example 21, Z-1-(1,3,-Benzodioxol-5-yl)-4-[4-[(3-methoxyphenyl)methyl]-1-piperazinyl]-cyclohexanol]
IC50 (D2 receptor; [2]): 1040 nM
IC50 (5-HT1A receptor): 2.15 nM

O[C@]1(c2ccc3c(c2)OCO3)CC[C@H](N2CCN(Cc3ccccc3)CC2)CC1 [Example 17, Z-1-(1,3-Benzodioxol-5-yl)-4-[4-(phenylmethyl)-1-piperazinyl]cyclohexanol]
IC50 (D2 receptor; [2]): 1710 nM
IC50 (5-HT1A receptor): 20 nM

Cc1ccccc1CN1CCN([C@H]2CC[C@](O)(c3ccc4c(c3)OCO4)CC2)CC1 [Example 24, Z-1-(1,3-Benzodioxol-5-yl)-4-[4-[(2-methylphenyl)methyl]-1-piperazinyl]cyclohexanol]
IC50 (D2 receptor; [2]): 2550 nM
IC50 (5-HT1A receptor): 4.2 nM

O[C@]1(c2ccc3c(c2)OCO3)CC[C@H](N2CCC(Cc3ccccc3)CC2)CC1 [Example 15, Z-1-(1,3-Benzodioxol-5-yl)-4-[4-(phenylmethyl)-1-piperidinyl]cyclohexanol]
IC50 (D2 receptor; [2]): > 1000 nM
IC50 (5-HT1A receptor): 5.4 nM

O[C@]1(c2ccc(F)cc2)CC[C@H](N2CCN(Cc3cc(F)ccc3F)CC2)CC1 [Example 36, Z-1-(4-Fluorophenyl)-4-[4-[(2,5-difluorophenyl)methyl]-1-piperazinyl]cyclohexanol]
Rat social interaction task, active doses [1]: 0.01-10 mpk
IC50 (5-HT1A receptor): 34.7 nM

COc1cccc(CC2CCN([C@H]3CC[C@](OC)(c4ccc5c(c4)OCO5)CC3)CC2)c1 [Example 44, Z-1-[4-(1,3-Benzodioxol-5-yl)-4-methoxy-1-cyclohexyl]-4-[(3-methoxyphenyl)methyl]-piperidine]
IC50 (D2 receptor; [2]): 49200 nM
IC50 (5-HT1A receptor): 8.2 nM

COc1cccc(CN2CCN([C@H]3CC[C@](O)(c4ccc(C(F)(F)F)cc4)CC3)CC2)c1 [Example 38, Z-1-[(4-Trifluoromethyl)phenyl]-4-[4-[(3-methoxyphenyl)methyl]-1-piperazinyl]-cyclohexanol]
IC50 (5-HT1A receptor): 35.6 nM

CC(c1ccccc1)N1CCN([C@H]2CC[C@](O)(c3ccc4c(c3)OCO4)CC2)CC1 (some centres unmarked) [Example 52, Z-1-(1,3-Benzodioxol-5-yl)-4-[4-(1-phenylethyl)-1-piperazinyl]cyclohexanol]
IC50 (5-HT1A receptor): 18.1 nM

O[C@]1(c2ccc3c(c2)OCO3)CC[C@H](N2CCN(Cc3cccs3)CC2)CC1 [Example 26, Z-1-(1,3-Benzodioxol-5-yl)-4-[4-(2-thienylmethyl)-1-piperazinyl]cyclohexano]
IC50 (5-HT1A receptor): 19.1 nM

O[C@]1(c2ccc3c(c2)OCO3)CC[C@H](N2CCN(Cc3cc(F)cc(F)c3)CC2)CC1 [Example 31, Z-1-(1,3-Benzodioxol-5-yl)-4-[4-[(3,5-difluorophenyl)methyl]-1-piperazinyl]-cyclohexanol]
IC50 (5-HT1A receptor): 21.1 nM

O[C@]1(c2ccc3c(c2)OCO3)CC[C@H](N2CCN(Cc3cc(F)ccc3F)CC2)CC1 [Example 29, Z-1-(1,3-Benzodioxol-5-yl)-4-[4-[(2,5-difluorophenyl)methyl]-1-piperazinyl]-cyclohexanol]
IC50 (5-HT1A receptor): 2.6 nM

O[C@]1(c2ccc(F)cc2)CC[C@H](N2CCN(Cc3ccccc3Cl)CC2)CC1 [Example 35, Z-1-(4-Fluorophenyl)-4-[4-[(2-chlorophenyl)methyl]-1-piperazinyl]cyclohexanol]
IC50 (5-HT1A receptor): 5.9 nM

O[C@]1(c2ccc(F)cc2)CC[C@H](N2CCC(Cc3ccccc3)CC2)CC1 [Example 47, Z-1-(4-Fluorophenyl)-4-[4-(phenylmethyl)-1-piperidinyl]cyclohexanol]
IC50 (5-HT1A receptor): 59.8 nM

COc1cccc(CC2CCN([C@H]3CC[C@](O)(c4ccc5c(c4)OCCO5)CC3)CC2)c1 [Example 41, Z-1-(1,4-Benzodioxan-6-yl)-4-[4-[(3-methoxyphenyl)methyl]-1-piperidinyl]cyclohexanol]
IC50 (5-HT1A receptor): 2.2 nM

COc1ccc([C@]2(O)CC[C@@H](N3CCC(Cc4ccccc4)CC3)CC2)cc1 [Example 16, Z-1-(4-Methoxyphenyl)-4-[4-(phenylmethyl)-1-piperidinyl]cyclohexanol]
IC50 (D2 receptor; [2]): 2710 nM
IC50 (5-HT1A receptor): 15.6 nM

O[C@]1(c2ccc3c(c2)OCO3)CC[C@H](N2CCN(Cc3cccc(F)c3F)CC2)CC1 [Example 30, Z-1-(1,3-Benzodioxol-5-yl)-4-[4,[(2,3-difluorophenyl)methyl]-1-piperazinyl]-cyclohexanol]
IC50 (5-HT1A receptor): 17.3 nM

CO[C@]1(c2ccc3c(c2)OCO3)CC[C@H](N2CCN(Cc3ccccc3)CC2)CC1 [Example 19, Z-1-[4-(1,3,-Benzodioxol-5-yl)-4-methoxycyclohexyl]-4-(phenylmethyl)piperazine]
IC50 (D2 receptor; [2]): 1350 nM
IC50 (5-HT1A receptor): 14 nM

O[C@]1(c2ccc3c(c2)OCO3)CC[C@H](N2CCN(Cc3ccccc3F)CC2)CC1 [Example 23, Z-1-(1,3-Benzodioxol-5-yl)-4-[4,[(2-fluorophenyl)methyl]-1-piperazinyl]cyclohexanol]
IC50 (D2 receptor): 1540 nM
IC50 (5-HT1A receptor): 10.1 nM

COc1ccc(F)c(CN2CCN([C@H]3CC[C@](O)(c4ccc5c(c4)OCO5)CC3)CC2)c1 [Example 39, Z-1-(1,3-Benzodioxol-5-yl)-4-[4-[(2-fluoro-5-methoxyphenyl)methyl]-1-piperazinyl]cyclohexanol]
IC50 (5-HT1A receptor): 0.75 nM

COc1ccc([C@]2(O)CC[C@@H](N3CCN(Cc4ccccc4)CC3)CC2)cc1 [Example 18, Z-1-(4-Methoxyphenyl):4-[4-(phenylmethyl)-1-piperazinyl]cyclohexane]
IC50 (D2 receptor; [2]): 1830 nM
IC50 (5-HT1A receptor): 46.5 nM

O=[N+]([O-])c1ccccc1CN1CCN([C@H]2CC[C@](O)(c3ccc4c(c3)OCO4)CC2)CC1 [Example 25, Z-1-(1,3-Benzodioxol-5-yl)-4-[4-[(2,-nitrophenyl)methyl]-1-piperazinyl]cyclohexanol]
IC50 (D2 receptor; [2]): 7080 nM
IC50 (5-HT1A receptor): 12.8 nM

O[C@]1(c2ccc3c(c2)OCO3)CC[C@H](N2CCN(Cc3cc(Cl)ccc3Cl)CC2)CC1 [Example 28, Z-1-(1,3-Benzodioxol-5-yl)-4-[4-[(2,5-dichlorophenyl)methyl]-1-piperazinyl]-cyclohexanol]
IC50 (5-HT1A receptor): 0.6 nM
